Our source for the IC50, melting point and inhibition values is US8263606B2 (Xenon Pharmaceuticals Inc., priority 2008, dated 2012).

One data set relates to sodium channel. As to the kind of experiment: Guanidine influx assay (14C-guanidine radiotracer flux, in vitro). Type of data set: cell-based, human or rat. The conditions noted are these: guanidine influx assay using a known cell line that expresses a sodium channel. The method, boiled down: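 Sodium channel block is measured as reduced 14C-guanidine uptake in cells stably expressing human or rat channels, stimulated with aconitine. Potency is given as IC50 from a four-parameter curve.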

A further data set deals with CYP3A4 (Homo sapiens, UniProt P08684). In words: Cytochrome P450 (CYP450) Inhibition Assay, CYP3A4 (Vivid fluorescence, BOMCC substrate). The conditions noted are these: human, P450 Baculosomes (recombinant CYP3A4), probe BOMCC (Vivid substrate).
Sequence of CYP3A4 (P08684 whole entry): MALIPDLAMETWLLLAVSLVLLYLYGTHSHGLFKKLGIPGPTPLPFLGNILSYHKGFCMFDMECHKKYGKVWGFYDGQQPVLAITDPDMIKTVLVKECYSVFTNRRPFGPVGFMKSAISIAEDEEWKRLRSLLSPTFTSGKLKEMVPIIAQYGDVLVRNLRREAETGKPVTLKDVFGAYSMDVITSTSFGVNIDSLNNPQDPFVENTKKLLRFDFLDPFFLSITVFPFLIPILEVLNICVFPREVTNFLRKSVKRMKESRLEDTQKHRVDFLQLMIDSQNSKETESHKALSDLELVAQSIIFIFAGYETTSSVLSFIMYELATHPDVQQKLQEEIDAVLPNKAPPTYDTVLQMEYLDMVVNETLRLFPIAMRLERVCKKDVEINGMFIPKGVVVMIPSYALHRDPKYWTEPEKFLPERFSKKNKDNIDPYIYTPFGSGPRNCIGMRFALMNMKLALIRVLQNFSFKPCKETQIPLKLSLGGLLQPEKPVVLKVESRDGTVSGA

The structures appear in SMILES notation. Bounds are passed on as bounds.

For `CS(=O)(=O)c1cccnc1CN1C(=O)C2(COc3cc4c(cc32)OCCO4)c2ccccc21` (stereo not drawn) [Example 11.79], the melting point is > 250 °C. Besides, the IC50 with sodium channel lay within 100 to 1000 nM. Besides, the inhibition at 10 µM on CYP3A4 is < 50%.

Compound `N#Cc1cccnc1CN1C(=O)C2(COc3cc4c(cc32)OCCO4)c2ccccc21` (stereo not drawn) [Example 11.80] had a melting point of 230 to 233 °C. Besides, the IC50 with sodium channel is 1 to 100 nM. Also, the inhibition at 10 µM on CYP3A4 is < 50%.

`O=C1N(Cc2ncccc2C(F)F)c2ccccc2[C@]12COc1cc3c(cc12)OCCO3` [Example 11.81, (8S)-1′-{[3-(difluoromethyl)pyridin-2-yl]methyl}-2,3-dihydrospiro[furo[2,3-g][1,4]benzodioxine-8,3′-indol]-2′(1′H)-one] came in with a melting point of 181 to 182 °C. In addition, the IC50 in the data set with sodium channel was 1 to 100 nM. Moreover, the inhibition at 10 µM on CYP3A4 is < 50%.

As for `Cc1nc(-c2cccc(CN3C(=O)C4(COc5cc6c(cc54)OCCO6)c4ccccc43)c2)no1` (stereo not drawn) [Example 11.83, 1′-[3-(5-methyl-1,2,4-oxadiazol-3-yl)benzyl]-2,3-dihydrospiro[furo[2,3-g][1,4]benzodioxine-8,3′-indol]-2′(1′H)-one], the melting point was 90 to 95 °C. Further, the IC50 with sodium channel lay within 1 to 100 nM. Moreover, the inhibition at 10 µM on CYP3A4 is > 50%.

`Cc1nc(-c2ccc(CN3C(=O)C4(COc5cc6c(cc54)OCCO6)c4ccccc43)cc2)no1` (stereo not drawn) [Example 11.84, 1′-[4-(5-methyl-1,2,4-oxadiazol-3-yl)benzyl]-2,3-dihydrospiro[furo[2,3-g][1,4]benzodioxine-8,3′-indol]-2′(1′H)-one]: the melting point is 174 to 175 °C. Also, in the data set on sodium channel, the IC50 fell in the range of 1 to 100 nM. At CYP3A4, the inhibition at 10 µM was < 50%.

Take `O=C(O)c1cccc(CN2C(=O)C3(COc4cc5c(cc43)OCCO5)c3ccccc32)c1` (stereo not drawn) [Example 11.86, 3-[(2′-oxo-2,3-dihydrospiro[furo[2,3-g][1,4]benzodioxine-8,3′-indol]-1′(2′H)-yl)methyl]benzoic acid]: the melting point lay within 254 to 258 °C. For the same compound, the IC50 in the data set on sodium channel fell in the range of 1000 to 10000 nM. In addition, the inhibition at 10 µM on CYP3A4 was < 50%.

Compound `O=C(O)c1ccc(CN2C(=O)C3(COc4cc5c(cc43)OCCO5)c3ccccc32)cc1` (stereo not drawn) [Example 11.87, 4-[(2′-oxo-2,3-dihydrospiro[furo[2,3-g][1,4]benzodioxine-8,3′-indol]-1′(2′H)-yl)methyl]benzoic acid] came in with a melting point of 234 to 237 °C. Also, the IC50 in the data set on sodium channel was 1000 to 10000 nM. Also, at CYP3A4, the inhibition at 10 µM is < 50%.

Consider `O=C1N(Cc2noc(C(F)(F)F)n2)c2ccccc2C12COc1cc3c(cc12)OCCO3` (stereo not drawn) [Example 11.90, 1′-{[5-(trifluoromethyl)-1,2,4-oxadiazol-3-yl]methyl}-2,3-dihydrospiro[furo[2,3-g][1,4]benzodioxine-8,3′-indol]-2′(1′H)-one], for which the melting point lay within 159 to 160 °C. The half-maximal inhibitory concentration (IC50) with sodium channel was 1 to 100 nM. Moreover, the inhibition at 10 µM on CYP3A4 is > 50%.

As for `O=C1N(Cc2nnc(C(F)(F)F)o2)c2ccccc2C12COc1cc3c(cc12)OCCO3` (stereo not drawn) [Example 11.92, 1′-{[5-(trifluoromethyl)-1,3,4-oxadiazol-2-yl]methyl}-2,3-dihydrospiro[furo[2,3-g][1,4]benzodioxine-8,3′-indol]-2′(1′H)-one], the melting point lay in the range of 137 to 139 °C. In addition, the IC50 in the data set on sodium channel is 1 to 100 nM. The inhibition at 10 µM on CYP3A4 is < 50%.

In the case of `CC(C)N1CCC(CN2C(=O)C3(COc4cc5c(cc43)OCCO5)c3ccccc32)CC1.Cl` (stereo not drawn) [Example 11.100, 1′-{[1-(1-methylethyl)piperidin-4-yl]methyl}-2,3-dihydrospiro[furo[2,3-g][1,4]benzodioxine-8,3′-indol]-2′(1′H)-one hydrochloride], the melting point lay within 213 to 216 °C. Besides, the IC50 with sodium channel is 1000 to 10000 nM. For the same compound, the inhibition at 10 µM on CYP3A4 was > 50%.

Compound `O=C1N(CC2CNCCO2)c2ccccc2C12COc1cc3c(cc12)OCCO3` (stereo not drawn) [Example 11.102, 1-(morpholin-2-ylmethyl)-2,3-dihydrospiro[furo[2,3-g][1,4]benzodioxine-8,3′-indol]-2′(1′1-1)-one] yielded a melting point of 154 to 159 °C. Besides, the IC50 in the data set on sodium channel fell in the range of 1000 to 10000 nM. On CYP3A4, the inhibition at 10 µM is < 50%.

For the compound `CC(C)N1CCOC(CN2C(=O)C3(COc4cc5c(cc43)OCCO5)c3ccccc32)C1` (stereo not drawn) [Example 11.103, 1′-{[4-(1-methylethyl)morpholin-2-yl]methyl}-2,3-dihydrospiro[furo[2,3-g][1,4]benzodioxine-8,3′-indol]-2′(1′H)-one], the melting point is 102 to 125 °C. Moreover, the IC50 with sodium channel was 100 to 1000 nM. In addition, on CYP3A4, the inhibition at 10 µM was > 50%.

As to `CN1CCOC(CN2C(=O)C3(COc4cc5c(cc43)OCCO5)c3ccccc32)C1` (stereo not drawn) [Example 11.104, 1-[(4-methylmorpholin-2-yl)methyl]-2,3-dihydrospiro[furo[2,3-g][1,4]benzodioxine-8,3′-indol]-2′(1′H)-one], the melting point was 102 to 112 °C. Besides, the IC50 in the data set on sodium channel was in the range of 100 to 1000 nM. The inhibition at 10 µM on CYP3A4 is > 50%.

`CN1CCO[C@H](CN2C(=O)[C@@]3(COc4cc5c(cc43)OCCO5)c3ccccc32)C1` [Example 11.106, (8S)-1′-{[(2S)-4-methylmorpholin-2-yl]methyl}-2,3-dihydrospiro[furo[2,3-g][1,4]benzodioxine-8,3′-indol]-2′(1′H)-one] registered a melting point of 85 to 90 °C. Further, the IC50 in the data set on sodium channel was 1 to 100 nM. Besides, at CYP3A4, the inhibition at 10 µM is < 50%.

For `O=C1N(Cc2ncccc2C(F)(F)F)c2ccccc2C12COc1ccc3nonc3c12` (stereo not drawn) [Example 11.107, 1′-{[3-(trifluoromethyl)pyridin-2-yl]methyl}spiro[furo[3,2-e][2,1,3]benzoxadiazole-8,3′-indol]-2′(1′H)-one], the melting point lay in the range of 212 to 215 °C. For the same compound, the IC50 in the data set on sodium channel is 1000 to 10000 nM. At CYP3A4, the inhibition at 10 µM was > 50%.

Regarding `O=C1N(Cc2ncccc2C(F)(F)F)c2ccccc2C12COc1c(Cl)cc3c(c12)OCCO3` (stereo not drawn) [Example 11.108, 6-chloro-1′-{[3-(trifluoromethyl)pyridin-2-yl]methyl}-2,3-dihydrospiro[furo[3,2-f][1,4]benzodioxine-9,3′-indol]-2′(1′H)-one], the melting point lay within 273 to 275 °C. The half-maximal inhibitory concentration (IC50) with sodium channel fell in the range of 1000 to 10000 nM. The inhibition at 10 µM on CYP3A4 was < 50%.

Turning to `O=C1N(Cc2ncccc2C(F)(F)F)c2ccccc2C12COc1ccc3c(c12)OCCO3` (stereo not drawn) [Example 11.109, 1′-{[3-(trifluoromethyl)pyridin-2-yl]methyl}-2,3-dihydrospiro[furo[3,2-f][1,4]benzodioxine-9,3′-indol]-2′(1′H)-one], the melting point fell in the range of 245 to 247 °C. Further, the IC50 in the data set on sodium channel lay in the range of 1000 to 10000 nM. Besides, the inhibition at 10 µM on CYP3A4 is < 50%.

`O=C1N(Cc2ccc(C(F)F)o2)c2ccccc2C12COc1cc3c(cc12)OCCO3` (stereo not drawn) [Example 11.110, 1-{[5-(difluoromethyl)furan-2-yl]methyl}-2,3-dihydrospiro[furo[2,3-g][1,4]benzodioxine-8,3′-indol]-2′(1′H)-one] came in with a melting point of 173 to 175 °C. For the same compound, the half-maximal inhibitory concentration (IC50) in the data set with sodium channel was 1 to 100 nM. The inhibition at 10 µM on CYP3A4 is > 50%.

On to `Cl.O=C1N(CC2CCNCC2)c2ccccc2C12COc1cc(F)c(F)cc12` (stereo not drawn) [Example 11.111, 5,6-difluoro-1′-(piperidin-4-ylmethyl)spiro[1-benzofuran-3,3′-indol]-2′(1′H)-one hydrochloride], for which the melting point was > 200 °C. In addition, in the data set with sodium channel, the IC50 lay within 1 to 100 nM. Besides, the inhibition at 10 µM on CYP3A4 is > 50%.

As for `COCCNC(=O)c1cccc(CN2C(=O)C3(COc4cc5c(cc43)CCO5)c3ccccc32)c1` (stereo not drawn) [Example 12.1, N-(2-methoxyethyl)-3-[(2′-oxo-5,6-dihydrospiro[benzo[1,2-b:5,4-b′]difuran-3,3′-indol]-1′(2′H)-yl)methyl]benzamide], the melting point fell in the range of 72 to 73 °C. For the same compound, the IC50 in the data set on sodium channel was in the range of 100 to 1000 nM. Also, the inhibition at 10 µM at CYP3A4 is > 50%.

`CCCCCCN(C)C(=O)c1cccc(CN2C(=O)C3(COc4cc5c(cc43)CCO5)c3ccccc32)c1` (stereo not drawn) [Example 12.2, N-hexyl-N-methyl-3-[(2′-oxo-5,6-dihydrospiro[benzo[1,2-b:5,4-b′]difuran-3,3′-indol]-1′(2′H)-yl)methyl]benzamide] registered a melting point of 73 to 74 °C. The IC50 with sodium channel was in the range of 100 to 1000 nM. Further, the inhibition at 10 µM on CYP3A4 was > 50%.

As to `CCC(CC)CNC(=O)c1cccc(CN2C(=O)C3(COc4cc5c(cc43)CCO5)c3ccccc32)c1` (stereo not drawn) [Example 12.3, N-(2-ethylbutyl)-3-[(2′-oxo-5,6-dihydrospiro[benzo[1,2-b:5,4-b′]difuran-3,3′-indol]-1′(2′H)-yl)methyl]benzamide], the melting point lay in the range of 105 to 106 °C. The IC50 with sodium channel lay in the range of 100 to 1000 nM. Further, on CYP3A4, the inhibition at 10 µM is > 50%.

The compound `Cc1ccc(NC(=O)c2cccc(CN3C(=O)C4(COc5cc6c(cc54)CCO6)c4ccccc43)c2)c(C)c1` (stereo not drawn) [Example 12.4, N-(2,4-dimethylphenyl)-3-[(2′-oxo-5,6-dihydrospiro[benzo[1,2-b:5,4-b′]difuran-3,3′-indol]-1′(2′H)-yl)methyl]benzamide] had a melting point of 234 to 235 °C. For the same compound, the IC50 in the data set on sodium channel lay in the range of 100 to 1000 nM. Moreover, the inhibition at 10 µM at CYP3A4 is > 50%.

`CCc1ccc(NC(=O)c2ccccc2CN2C(=O)C3(COc4cc5c(cc43)CCO5)c3ccccc32)cc1` (stereo not drawn) [Example 12.8, N-(4-ethylphenyl)-2-[(2′-oxo-5,6-dihydrospiro[benzo[1,2-b:5,4-b′]difuran-3,3′-indol]-1′(2′H)-yl)methyl]benzamide]: the melting point was > 230 °C. Moreover, the IC50 in the data set with sodium channel was ≥ 10000 nM. Besides, the inhibition at 10 µM on CYP3A4 is < 50%.

What is called IC50 is the concentration at which inhibition is half-maximal. The term melting point denotes the temperature of the solid-liquid transition. What is called inhibition is the drop in the measured response relative to a control, in per cent.
